The target of one experiment is T1, androgen receptor (AR) (Homo sapiens, UniProt P10275, T878A).
T1 construct: LNCaP cells express endogenous AR; endogenous in cells; host or cells: LNCaP cells
T1 sequence (P10275 1-920 T878A): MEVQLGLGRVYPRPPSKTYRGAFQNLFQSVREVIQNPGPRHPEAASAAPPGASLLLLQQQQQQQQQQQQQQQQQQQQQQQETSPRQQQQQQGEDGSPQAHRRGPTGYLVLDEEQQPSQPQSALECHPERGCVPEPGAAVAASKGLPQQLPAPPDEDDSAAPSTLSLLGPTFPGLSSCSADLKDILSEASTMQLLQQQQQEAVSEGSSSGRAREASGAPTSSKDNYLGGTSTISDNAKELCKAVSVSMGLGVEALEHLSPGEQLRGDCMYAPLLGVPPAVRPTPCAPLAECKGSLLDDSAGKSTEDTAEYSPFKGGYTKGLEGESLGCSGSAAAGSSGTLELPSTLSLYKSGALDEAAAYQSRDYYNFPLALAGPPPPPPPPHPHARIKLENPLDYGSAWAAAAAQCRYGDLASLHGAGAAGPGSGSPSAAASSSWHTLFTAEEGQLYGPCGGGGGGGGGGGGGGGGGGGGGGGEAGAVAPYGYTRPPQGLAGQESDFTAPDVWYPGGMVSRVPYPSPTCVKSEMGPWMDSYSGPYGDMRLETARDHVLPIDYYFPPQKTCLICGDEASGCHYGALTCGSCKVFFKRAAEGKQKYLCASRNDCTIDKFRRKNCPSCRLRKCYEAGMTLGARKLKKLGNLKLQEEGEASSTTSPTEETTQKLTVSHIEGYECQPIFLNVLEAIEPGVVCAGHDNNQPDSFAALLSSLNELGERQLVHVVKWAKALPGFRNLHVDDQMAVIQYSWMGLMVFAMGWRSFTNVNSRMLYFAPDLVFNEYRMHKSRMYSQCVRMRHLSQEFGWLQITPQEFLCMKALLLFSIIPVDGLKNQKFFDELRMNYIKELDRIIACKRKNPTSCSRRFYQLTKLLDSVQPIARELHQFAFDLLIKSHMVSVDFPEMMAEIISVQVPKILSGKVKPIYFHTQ
Kind of experiment: LNCaP PSA (6.1 kb)-luciferase assay (R1881-induced). The class given is cell-based. As to conditions: FIG. 7A, 1 μM to 35 μM. The source says:
LNCaP cells were employed initially for all experiments because they are well-differentiated human prostate cancer cells in which ligand-independent activation of the AR by FSK has been characterized (Nazareth et al 1996 J. Biol. Chem. 271, 19900-19907; and Sadar 1999 J. Biol. Chem. 274, 7777-7783). LNCaP cells express endogenous AR and secrete prostate-specific antigen (PSA) (Horoszewicz et al 1983 Cancer Res. 43, 1809-1818). LNCaP cells can be grown either as monolayers in cell culture or as tumors in the well-characterized xenograft model that progresses to androgen independence in castrated hosts (Sato et al 1996 J. Steroid Biochem. Mol. Biol. 58, 139-146; Gleave et al 1991 Cancer Res. 51, 3753-3761; Sato et al 1997 Cancer Res. 57, 1584-1589; and Sadar et al 2002 Mol. Cancer Ther. 1(8), 629-637). […] Small molecules that specifically target the AR-NTD should have no effect on PC3 cells. This means that they should not alter the proliferation of PC3 cells if they specifically block the AR to mediate their inhibitory effects. R1881 was employed since it is stable and avoids problems associated with the labile physiological ligand dihydrotestosterone (DHT). Reporter specificity may be determined using several alternative reporter gene constructs. Some well characterized ARE-driven reporter gene constructs that have been used extensively are the PSA (6.1 kb) enhance/promoter which contains several AREs and is highly inducible by androgens as well as by FSK (Ueda et al 2002 A J. Biol. Chem. 277, 7076-7085) and the ARR3-thymidine kinase (tk)-luciferase, which is an artificial reporter construct that contains three tandem repeats of the rat probasin ARE1 and ARE2 regions upstream of a luciferase reporter (Snoek et al 1996 J. Steroid Biochem. Mol. Biol. 59, 243-250).
LNCaP cells were transiently cotransfected with PSA (6.1 kb)-luciferase (0.25 μg/well) in 24-well plates for 24 h prior to pre-treatment with compounds for 1 hour before the addition of synthetic androgen, R1881 (1 nM) to induce PSA production or vehicle. The total amount of plasmid DNA transfected was normalized to 0.75 μg/well by the addition of the empty vector. After 48 h of incubation with R1881, the cells were harvested, and relative luciferase activity was determined. Test compounds were added to the cells at various concentrations and activity for each treatment was normalized to the predicted maximal activity induction (in the absence of test compounds, vehicle only). Plotting of sigmoidal curves (Boltzmann Function) and IC50 calculations were done using OriginPro 8.1 Sofware (Northampton, Mass., USA).
Using the LNCaP PSA (6.1 kb)-luciferase assay described above, various compounds described herein were tested against DMSO and EPI-001 controls. In FIG. 1, a comparison is made between EPI-035 and DMSO and EPI-001 or EPI-026 from 1 μM to 10 μM. […] In FIGS. 3A and 3B, EPI-040 and EPI-051 are compared to DMSO and EPI-001 at 1 μM to 30 μM and 2.5 μM to 35 μM respectively. In FIGS. 4A and 4B, EPI-043 is compared to DMSO and EPI-001 at 5 μM to 35 μM 0.25 μM to 25 μM respectively.
Similarly, in FIG. 7B concentrations of EPI-6000, EPI-6001, EPI-6002, and EPI-6003 are shown at 12.5 μM and 25 μM as compared to the DMSO control.
Take `OC(CCl)COc1ccccc1Cc1ccccc1OCC(O)CCl` (stereo not drawn) [EPI-900]: the “dose response as compared to the DMSO control” value is reported as “showed a dose response”.

The experiment is the same for the next values; noted with them: LNCaP PSA (6.1 kb)-luciferase assay, versus DMSO and EPI-001 controls.
As for `CC(C)(c1ccc(OCCO)cc1)c1ccc(OCCCCl)cc1` [EPI-035], the “androgen receptor modulating activity” value is “showed androgen receptor modulating activity”.
Same read-out and setting: to `CC(=O)OCCOc1ccc(C(C)(C)c2ccc(OCCCCl)cc2)cc1` [EPI-037] belongs “showed androgen receptor modulating activity”.
As for `CC(C)(c1ccc(OCCCCl)cc1)c1ccc(OCCCCl)cc1` [EPI-038], the “androgen receptor modulating activity” value is on record as “showed androgen receptor modulating activity”.
The same measure, in the same setting: to `CC(C)(c1ccc(O)cc1)c1ccc(OCCOCCOCCO)cc1` [EPI-040] belongs “showed androgen receptor modulating activity”.
As to `CC(C)(c1ccc(OCCCCCCCl)cc1)c1ccc(OCCOCCOCCO)cc1` [EPI-043], the “androgen receptor modulating activity” value is recorded as “showed androgen receptor modulating activity”.
As to `C#CCOc1ccc(C(C)(C)c2ccc(OC[C@@H](O)CCl)cc2)cc1` [EPI-046], the “androgen receptor modulating activity” value is recorded as “showed androgen receptor modulating activity”.
The same measure, in the same setting: to `C#CCOc1ccc(C(C)(C)c2ccc(OC[C@H](O)CCl)cc2)cc1` [EPI-047] belongs “showed androgen receptor modulating activity”.
Take `C#CCOc1ccc(C(C)(C)c2ccc(OCC(O)CO)cc2)cc1` (stereo not drawn) [EPI-051]: the “androgen receptor modulating activity” value is recorded as “showed androgen receptor modulating activity”.
On the same count and under the same terms, in the case of `OC(CCl)COc1ccccc1Cc1ccccc1OCC(O)CCl` (stereo not drawn) [EPI-900] it was “showed androgen receptor modulating activity”; in that of `CC(C)(c1ccc(OCC(O)CCl)cc1)c1ccccc1OCC(O)CO` (stereo not drawn) [EPI-6000], “showed androgen receptor modulating activity”.
As to `CC(C)(c1ccc(OCC(O)CCl)cc1)c1ccccc1OCC(O)CO` (stereo not drawn) [EPI-6001], the “androgen receptor modulating activity” value is on record as “showed androgen receptor modulating activity”.
On the same count and under the same terms, in the case of `CC(C)(c1ccc(OCC(O)CCl)cc1)c1ccccc1OCC(O)CO` (stereo not drawn) [EPI-6002] it was “showed androgen receptor modulating activity”; in that of `CC(C)(c1ccc(OCC(O)CCl)cc1)c1ccccc1OCC(O)CO` (stereo not drawn) [EPI-6003], “showed androgen receptor modulating activity”.

Staying with this experiment, now noted: LNCaP cells transfected with PSA (6.1 kb)-luciferase, 1 h pre-treatment, R1881 1 nM, 48 h.
Regarding `CC(C)(c1ccc(OCCO)cc1)c1ccc(OCCCCl)cc1` [drawing 869], the “EXPERIMENTAL DATA (activity in the described assays)” value is reported as “Active”.
Still for that read-out and setting: in the case of `CC(=O)OCCOc1ccc(C(C)(C)c2ccc(OCCCCl)cc2)cc1` [drawing 870] it was “Active”; in that of `CC(C)(c1ccc(OCCCCl)cc1)c1ccc(OCCCCl)cc1` [drawing 871], “Active”.
Still for that read-out and setting: in the case of `CC(C)(c1ccc(OCCCCCCCl)cc1)c1ccc(OCCOCCOCCO)cc1` [drawing 874] it was “Active”; in that of `C#CCOc1ccc(C(C)(C)c2ccc(OC[C@@H](O)CCl)cc2)cc1` [drawing 875], “Active”; in that of `C#CCOc1ccc(C(C)(C)c2ccc(OC[C@H](O)CCl)cc2)cc1` [drawing 876], “Active”.
`C#CCOc1ccc(C(C)(C)c2ccc(OCC(O)CO)cc2)cc1` (centres unmarked) [drawing 877]: the “EXPERIMENTAL DATA (activity in the described assays)” value is given as “Active”.
On the same count and under the same terms, to `OC(CCl)COc1ccccc1Cc1ccccc1OCC(O)CCl` (centres unmarked) [drawing 878] belongs “Active”; to `CC(C)(c1ccc(OCC(O)CCl)cc1)c1ccccc1OCC(O)CO` (centres unmarked) [drawing 879], “Active”.
